From patent US20150080580A1, “THIOUREA DERIVATIVES AS a-CHYMOTRYPSIN INHIBITORS” (priority 2013, published 2015)

Assays:
3T3 cell line = assay: Cell proliferation inhibition (cytotoxicity) MTT assay for 3T3 cell line; format: cell-based, Mouse
Procedure: (§1) It was evaluated by using the MTT (3-[4,5-dimethylthiazole-2-yl]-2,5-diphenyl-tetrazolium bromide) assay (Mosmann, 1983). The 3T3 cell-lines (Mouse Fibroblasts) were cultured in Dulbecco's Modified Eagle's Medium, which was later supplemented with 5% of bovine serum, 100 IU/mL of penicillin, and 100 μg/mL of streptomycin, in 5% CO2 incubator at 37° C. Exponentially growing cell, 1×10^4 cells/well incorporated into each well of 96-well plates. Then, fresh the medium containing different concentrations of compounds were loaded in each well after 24 hours. Again, after 72 hrs, fresh the medium containing 0.5 mg/mL MTT were loaded in each well, and incubated further for 4 hrs. Subsequently, the media containing MTT was replaced by 100 μL of DMSO for 15 min, and then the absorbance was taken at 570 nm.

[1] = as above; format: cell-based, Mouse; conditions: 3T3 mouse fibroblast cells; 3T3 mouse fibroblasts, MTT, 72 hrs, n = 3; read-out: 3T3 cell-line GI50 ± SEM
Procedure: as §1

α-Chymotrypsin [2] = target: T1, α-Chymotrypsin (Bos taurus, UniProt P00766); assay: α-Chymotrypsin inhibition kinetic study (Lineweaver-Burk, Dixon, Hanes-Woolf plots); format: biochemical, bovine
T1 construct: purchased Sigma-Aldrich (USA) C4129; host or cells: bovine pancreas
Description: (§2) α-Chymotrypsin (bovine pancreas, C4129) and N-succinyl-L-phenylalanine-p-nitroaniline (S2628) were purchased from Sigma-Aldrich (USA). Chymostatin (152845) from MP Biomedicals, LLC, USA, Tris(hydroxymethyl)aminomethane from Scharlau Chemie Barcelona, Spain and all other reagents were obtained from E. Merck and were of analytical grade. All other solvents and reagents were of analytical grade and used directly without purification.
The change in concentration of the substrate/product (rate of reaction) was measured as optical density per minute (OD/min). This OD/min was obtained by incorporating different concentrations of compounds over substrate (SPpNA) concentrations between 0.4 mM and 3.2 mM in micro-plate reader. Reciprocal of OD/min against the reciprocal of the substrate concentration, defined as Lineweaver-Burk plot (and its secondary plot; slope vs compound concentration); the Dixon plot (and its secondary plot; slope vs reciprocal of compound concentration) and then Hanes-Woolf plot were plotted (Lineweaver et al., 1934; Dixon, 1953; Segel, 1993) Graphs were plotted using GraFit 4 (Erithacus Software Limited, Surrey, UK) and GraphPad Prism 5 (GraphPad Software, California, USA). The types of inhibition were determined by the graphical views of Dixon plots, Lineweaver-Burk plots and their secondary plots as well as Hanes-Woolf plot. The Ki values, obtained directly from the software, also were cross-checked and tallied in these graphs. Final concentration of DMSO was maintained 5.5%.

α-Chymotrypsin [3] = target: T1, α-Chymotrypsin; assay: α-Chymotrypsin inhibition assay (SPpNA substrate, absorbance at 410 nm); format: biochemical, bovine; conditions: α-chymotrypsin, substrate SPpNA 0.4 mM, pH 7.6, 30° C., n = 3
Procedure: as §2
This was performed in 50 mM Tris-HCl buffer pH 7.6 with 10 mM CaCl2. α-Chymotrypsin (12 units/mL prepared in 50 mM Tris-HCl buffer) with the different concentration of test compounds prepared in DMSO. It was then incubated at 30° C. for 25 min. The reaction was started by the addition of the substrate, N-succinyl-L-phenylalanine-p-nitroanilide (final concentration of 0.4 mM, prepared in the buffer as mentioned above). The change in absorbance due to released p-nitroaniline was continuously monitored at 410 nm (Choudhary et al., 2011). All the experiments were in a final volume of 200 μL in triplicate, and data was taken using a micro-plate reader (SpectraMax M2, Molecular Devices, Calif., USA).
The results were processed by using SoftMax Pro 4.8 then analyzed by MS Excel software. The % of inhibition based upon initial velocity and calculated as: […]
IC50 (Inhibition of enzymatic hydrolysis of the substrate SPpNA by 50%) value was calculated using EZ-Fit software (Perellela Scientific, Inc., Amherst, Mars, USA).

## COc1ccccc1NC(=S)Nc1cccc(Cl)c1 [Compound 5, 1-(3-Chlorophenyl)-3-(2-methoxyphenyl) thiourea]
3T3 cell line
  growth inhibition for 3T3 cell lines (in words): showed growth inhibition
[1]
  GI50 at 72 h: 10.7 ± 1.2 µM
α-Chymotrypsin [2]; from Lineweaver-Burk, Dixon and Hanes-Woolf plots
  Type of inhibition: Non- Competitive
α-Chymotrypsin [2]; substrate SPpNA 0.4-3.2 mM, n = 3, read-out: Ki ± SEM
  Ki: 25.3 ± 4.6 µM
α-Chymotrypsin [3]
  IC50: 26.3 ± 4.9 µM
